By Ki is commonly meant a dissociation constant, usually derived from enzyme kinetics or from competition with a known ligand. For orientation: MIC means the least concentration at which growth counts as inhibited.

The record followed here is patent publication US7186738B2, “Antibacterial oxalidinones” (AstraZeneca AB, priority 2003, dated 2007).

In brackets after ≈: the same amount, converted by molar mass.

The target in one experiment is T1, MAO-A (Homo sapiens, UniProt P21397).
T1 construct: made in house; host or cells: yeast
T1 sequence (P21397 1-527): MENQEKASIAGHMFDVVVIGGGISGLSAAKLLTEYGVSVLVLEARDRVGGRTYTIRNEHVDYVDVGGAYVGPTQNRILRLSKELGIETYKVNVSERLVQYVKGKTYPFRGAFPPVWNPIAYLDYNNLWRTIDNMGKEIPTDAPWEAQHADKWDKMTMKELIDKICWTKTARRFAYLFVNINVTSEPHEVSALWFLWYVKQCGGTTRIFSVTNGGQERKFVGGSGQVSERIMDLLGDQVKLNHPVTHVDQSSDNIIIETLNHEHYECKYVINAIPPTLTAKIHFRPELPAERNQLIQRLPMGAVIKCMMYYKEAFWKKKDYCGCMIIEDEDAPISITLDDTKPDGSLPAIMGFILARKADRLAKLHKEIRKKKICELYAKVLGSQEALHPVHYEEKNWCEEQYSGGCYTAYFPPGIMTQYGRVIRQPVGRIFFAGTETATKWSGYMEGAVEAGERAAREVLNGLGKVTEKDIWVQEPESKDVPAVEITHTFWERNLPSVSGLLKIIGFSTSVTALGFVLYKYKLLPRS
Put plainly: MAO-A standard in-vitro assay, human liver enzyme expressed in yeast. It counts as biochemical. Particulars: read-out: Ki value against MAO-A (converted). On the procedure:
The activity of the compounds of the invention against MAO-A was tested using a standard in-vitro assay based on human liver enzyme expressed in yeast as described in Biochem. Biophys. Res. Commun. 1991, 181, 1084–1088.

The test system of experiment [1] is Staphylococcus aureus MRQR (methicillin resistant and quinolone resistant). The experiment can be described thus: MIC by agar dilution, standard in-vitro test system. The format is cell-based. As to conditions: inoculum 10^4 CFU/spot, 37° C., 24 hours. On the procedure:
(§1) The following results were obtained on a standard in-vitro test system. The activity is described in terms of the minimum inhibitory concentration (MIC) determined by the agar-dilution technique with an inoculum size of 10^4 CFU/spot. Typically, compounds are active in the range 0.01 to 256 μg/ml.
(§2) Staphylococci were tested on agar, using an inoculum of 10^4 CFU/spot and an incubation temperature of 37° C. for 24 hours—standard test conditions for the expression of methicillin resistance.

For experiment [2], the system named is Staphylococcus aureus MSQS (methicillin sensitive and quinolone sensitive). The description is as above. The format is cell-based. As to conditions: inoculum 10^4 CFU/spot, 37° C., 24 hours. On the procedure: as §1, §2
The subject of the next experiment is Enterococcus faecium. The description is as above. Particulars: agar with 5% defibrinated horse blood, 10^4 CFU/spot, 37° C., 5% carbon dioxide, 48 hours. The format is cell-based. On the procedure: (§3) The following results were obtained on a standard in-vitro test system. The activity is described in terms of the minimum inhibitory concentration (MIC) determined by the agar-dilution technique with an inoculum size of 10^4 CFU/spot. Typically, compounds are active in the range 0.01 to 256 μg/ml. Streptococci and enterococci were tested on agar supplemented with 5% defibrinated horse blood, an inoculum of 10^4 CFU/spot and an incubation temperature of 37° C. in an atmosphere of 5% carbon dioxide for 48 hours—blood is required for the growth of some of the test organisms.

For a further experiment, the system named is Streptococcus pneumoniae. The description is as above. It counts as cell-based. Particulars: agar with 5% defibrinated horse blood, 10^4 CFU/spot, 37° C., 5% carbon dioxide, 48 hours. On the procedure: as §3
For the next experiment, the system named is Moraxella catarrhalis. The experiment is described as above. The format is cell-based. As to conditions: inoculum 10^4 CFU/spot. On the procedure:
as §1

Take `O=C1O[C@@H](Cn2ccnn2)CN1c1ccc(-c2c[nH]nn2)c(F)c1` [Example 7, (5R)-3-[3-Fluoro-4-(1H-1,2,3-triazol-4-yl)phenyl]-5-(1H-1,2,3-triazol-1-ylmethyl)-1,3-oxazolidin-2-one]: at MAO-A, the inhibitory constant (Ki) was 437 µM.
Turning to `Cc1cc(-c2ccc(N3C[C@H](Cn4ccnn4)OC3=O)cc2F)on1` [Example 1, (5R)-3-[3-Fluoro-4-(3-methylisoxazol-5-yl)phenyl]-5-(1H-1,2,3-triazol-1-ylmethyl)-1,3-oxazolidin-2-one], the MIC was determined as 1 µg/mL (≈ 2.91 µM) in experiment [1]; 0.5 µg/mL (≈ 1.46 µM) in experiment [2]; 0.5 µg/mL (≈ 1.46 µM) in the experiment with Enterococcus faecium; 0.25 µg/mL (≈ 0.728 µM) in the experiment on Streptococcus pneumoniae; 1 µg/mL (≈ 2.91 µM) in the experiment on Moraxella catarrhalis.
For the molecule `CCOC(=O)c1cc(-c2ccc(N3C[C@H](Cn4ccnn4)OC3=O)cc2F)on1` [Example 2, Ethyl 5-{2-fluoro-4-[(5R)-2-oxo-5-(1H-1,2,3-triazol-1-ylmethyl)-1,3-oxazolidin-3-yl]phenyl}isoxazole-3-carboxylate], the Ki on MAO-A was 47.3 µM.
`CCOC(=O)c1cc(-c2ccc(N3C[C@H](CNC(C)=O)OC3=O)cc2F)on1` [acetamide analogue of Example 2, reference compound]: at MAO-A, the Ki was 15.3 µM.
Consider `CC(=O)NC[C@H]1CN(c2ccc(-c3c[nH]nn3)c(F)c2)C(=O)O1` [acetamide analogue of Example 7, reference compound], for which the Ki at MAO-A is 106 µM.
